Data as given in patent US8148364B2, “Substituted bicyclic pyrimidone derivatives” (Sanofi-Aventis, priority 2005, dated 2012).

Biological target: GSK3β (Homo sapiens, UniProt P49841)
Experiment: Inhibitory activity against GSK3β (33P-ATP phosphorylation of prephosphorylated GS1 peptide, two protocols)
Type: biochemical
Description: Two different protocols can be used. In a first protocol: 7.5 μM of prephosphorylated GS1 peptide and 10 μM ATP (containing 300,000 cpm of 33P-ATP) were incubated in 25 mM Tris-HCl, pH 7.5, 0.6 mM DTT, 6 mM MgCl2, 0.6 mM EGTA, 0.05 mg/ml BSA buffer for 1 hour at room temperature in the presence of GSK3beta (total reaction volume: 100 microliters). In a second protocol: 4.1 μM of prephosphorylated GS1 peptide and 42 μM ATP (containing 260,000 cpm 33P-ATP) were incubated in 80 mM Mes-NaOH, pH 6.5, 1 mM Mg acetate, 0.5 mM EGTA, 5 mM 2-mercaptoethanol, 0.02% Tween 20, 10% glycerol buffer for 2 hours at room temperature in the presence of GSK3beta. Inhibitors were solubilized in DMSO (final solvent concentration in the reaction medium, 1%). The reaction was stopped with 100 microliters of a solution made of 25 g polyphosphoric acid (85% P2O5), 126 ml 85% H3PO4, H2O to 500 ml and then diluted to 1:100 before use. An aliquot of the reaction mixture was then transferred to Whatman P81 cation exchange filters and rinsed with the solution described above. Incorporated 33P radioactivity was determined by liquid scintillation spectrometry. The phosphorylated GS-1 peptide used in the example was the same one as reported in Woodgett, J. R. (1989) Analytical Biochemistry 180, 237-241 and had the same sequence as reported therein, which reference is incorporated herein by reference in its entirety.

Sequence of GSK3β (P49841 whole entry): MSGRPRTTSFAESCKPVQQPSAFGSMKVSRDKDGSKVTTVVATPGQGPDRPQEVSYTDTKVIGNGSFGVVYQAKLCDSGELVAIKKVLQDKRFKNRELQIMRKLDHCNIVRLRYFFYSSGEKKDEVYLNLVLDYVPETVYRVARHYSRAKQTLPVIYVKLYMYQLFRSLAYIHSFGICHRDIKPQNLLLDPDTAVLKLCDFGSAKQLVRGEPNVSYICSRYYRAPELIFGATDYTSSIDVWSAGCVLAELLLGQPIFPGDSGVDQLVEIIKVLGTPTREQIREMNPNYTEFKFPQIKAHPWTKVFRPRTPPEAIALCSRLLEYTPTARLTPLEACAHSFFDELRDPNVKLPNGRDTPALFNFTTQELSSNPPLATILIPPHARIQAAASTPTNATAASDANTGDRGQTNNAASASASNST

IC50: 5 nM
SMILES: COc1cc(F)ccc1C(=O)NC1CCCn2c1nc(-c1ccncn1)cc2=O (racemic) [compound No. 33 of table 1, (+/−) 4-Fluoro-2-methoxy-N-(4-oxo-2-pyrimidin-4-yl-6,7,8,9-tetrahydro-4H-pyrido[1,2-a]pyrimidin-9-yl)benzamide]
